According to patent US20080214560A1, “Use of Pyrimidine Derivatives in the Manufacture of a Medicament for Prevention and/or Treatment of Alzheimer's Disease” (AstraZeneca AB, priority 2005, published 2008):
Structures can show the parent of a compound that is named as a salt.

Target: T1, recombinant human GSK3β (Homo sapiens, UniProt P49841)
T1 construct: purchased Dundee University, UK
Test: GSK3β Scintillation Proximity Assay (ATP competition)
Format: biochemical
Settings: SPA, 1 μM ATP, Km of ATP 20 μM used to calculate Ki
Protocol: Determination of ATP Competition in Scintillation Proximity GSK3β Assay.
GSK3β Scintillation Proximity Assay.
The competition experiments were carried out in duplicate with 10 different concentrations of the inhibitors in clear-bottom microtiter plates (Wallac, Finland). A biotinylated peptide substrate, Biotin-Ala-Ala-Glu-Glu-Leu-Asp-Ser-Arg-Ala-Gly-Ser(PO3H2)-Pro-Gln-Leu (AstraZeneca, Lund), was added at a final concentration of 1 μM in an assay buffer containing 1 mU recombinant human GSK3β (Dundee University, UK), 12 mM morpholinepropanesulfonic acid (MOPS), pH 7.0, 0.3 mM EDTA, 0.01% β-mercaptorethanol, 0.004% Brij 35 (a […] detergent), 0.5% glycerol and 0.5 μg BSA/25 μl. The reaction was initiated by the addition of 0.04 μCi [γ-^33P]ATP (Amersham, UK) and unlabelled ATP at a final concentration of 1 μM and assay volume of 25 μL. After incubation for 20 minutes at room temperature, each reaction was terminated by the addition of 25 μl stop solution containing 5 mM EDTA, 50 μM ATP, 0.1% Triton X-100 and 0.25 mg streptavidin coated Scintillation Proximity Assay (SPA) beads (Amersham, UK). After 6 hours the radioactivity was determined in a liquid scintillation counter (1450 MicroBeta Trilux, Wallac). The inhibition curves were analysed by non-linear regression using GraphPad Prism, USA. The Km value of ATP for GSK3β, used to calculate the inhibition constants (Ki) of the various compounds, was 20 μM.

T1 sequence (P49841 whole entry): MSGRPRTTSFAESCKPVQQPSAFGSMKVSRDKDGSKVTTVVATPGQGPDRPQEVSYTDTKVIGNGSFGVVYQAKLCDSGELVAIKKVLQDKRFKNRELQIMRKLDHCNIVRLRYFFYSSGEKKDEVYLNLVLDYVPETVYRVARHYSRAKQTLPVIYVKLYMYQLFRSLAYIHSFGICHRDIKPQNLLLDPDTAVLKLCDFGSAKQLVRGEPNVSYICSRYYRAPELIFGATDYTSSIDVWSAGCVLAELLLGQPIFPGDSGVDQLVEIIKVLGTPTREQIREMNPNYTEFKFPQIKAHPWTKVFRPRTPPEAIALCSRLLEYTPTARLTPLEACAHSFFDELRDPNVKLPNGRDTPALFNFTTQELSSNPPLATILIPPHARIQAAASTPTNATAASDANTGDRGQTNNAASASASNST

Structure (SMILES)	Ki
Cc1ncc(-c2nc(Nc3ccc(C(=O)c4ccccn4)cc3)ncc2F)n1C(C)C [Example 2, (4-{[5-Fluoro-4-(1-isopropyl-2-methyl-1H-imidazol-5-yl)pyrimidin-2-yl]amino}phenyl)(pyridin-2-yl)methanone hydrochloride]	1.3 nM
Cc1cc(S(=O)(=O)N2CCN(C)CC2)ccc1Nc1ncc(F)c(-c2cnc(C)n2C(C)C)n1 [Example 5, 5-Fluoro-4-(1-isopropyl-2-methyl-1H-imidazol-5-yl)-N-{2-methyl-4-[(4-methylpiperazin-1-yl)sulfonyl]phenyl}pyrimidin-2-amine hydrochloride]	24 nM
COc1cc(Nc2ncc(F)c(-c3cnc(C)n3C(C)C)n2)ccc1C(=O)N1CCN(C)CC1 [Example 11, 5-Fluoro-4-(1-isopropyl-2-methyl-1H-imidazol-5-yl)-N-{3-methoxy-4-[(4-methylpiperazin-1-yl)carbonyl]phenyl}pyrimidin-2-amine hydrochloride]	25 nM
Cc1ncc(-c2nc(Nc3ccc(C(=O)N4CCN(C)CC4)cc3)ncc2F)n1C(C)C [Example 13, 5-Fluoro-4-(1-isopropyl-2-methyl-1H-imidazol-5-yl)-N-{4-[(4-methylpiperazin-1-yl)carbonyl]phenyl}pyrimidin-2-amine hydrochloride]	3.8 nM
